Here are results for nine compounds from ChEMBL document CHEMBL1201862, “PubChem BioAssay data set” (2004).

Test systems include UO-31; HOP-62; SW-620; SN12C; MOLT-4; NCI/ADR-RES; SF-539; COLO 205; SNB-75; SK-MEL-2; HCT-15; SK-MEL-5; SK-MEL-28; TK-10; UACC-257; MCF7; ACHN; U-251; A549; K562.
What all share (experiment): NCI-60 cell line screen, 48 h

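1) Cells in 96-well plates. 2) Compound, 48 h, 5 concentrations. 3) Linear interpolation between surrounding doses. 4) Unreached endpoint = highest concentration. GI50 = concentration required for 50% inhibition of growth.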 Calls of active or inactive are those of the source. No stated cut-off is given here; in the data, active = GI50 up to about 1.1 µM and inactive = higher.

With `CSCCCNC(=O)c1csc(-c2csc(CCNC(=O)CNC(=O)CNC(=O)CNC(=O)OC(C)(C)C)n2)n1`, the GI50 with UO-31, in the test with HOP-62, in the test with SW-620, in the test on SN12C, with MOLT-4 and in the test with NCI/ADR-RES was > 100 µM (inactive) in each case. Moreover, the GI50 is > 100 µM (inactive) in the test with SF-539; > 100 µM (inactive) in the test with COLO 205; > 100 µM (inactive) with SNB-75; > 100 µM (inactive) in the test with SK-MEL-2; more than 100 µM in the test with HCT-15; > 100 µM (inactive) with SK-MEL-5. Moreover, the GI50 with SK-MEL-28, in the test with TK-10, in the test with UACC-257, in the test with MCF7, with ACHN and with U-251 was > 100 µM (inactive) each time. Besides, the GI50 with A549 and with K562 was > 100 µM (inactive) in each case.

In the case of `Nc1c(S(=O)(=O)O)cc(S(=O)(=O)O)c2ccc(/N=N/c3ccc(/C=C/c4ccc(/N=N/c5ccc6c(S(=O)(=O)O)cc(S(=O)(=O)O)c(N)c6c5O)cc4S(=O)(=O)O)c(S(=O)(=O)O)c3)c(O)c12`, the GI50 in the test with UO-31 was 37.1 µM (inactive); in the test on HOP-62 it was > 100 µM (inactive); in the test on SW-620, > 100 µM (inactive); in the test with SN12C it was > 100 µM (inactive); with MOLT-4 it was > 100 µM (inactive); with NCI/ADR-RES it was > 100 µM (inactive). In addition, the GI50 in the test with SF-539 was > 100 µM (inactive); in the test on COLO 205, > 100 µM (inactive); with SNB-75, 56.9 µM (inactive); in the test on SK-MEL-2 it was > 100 µM (inactive); in the test on HCT-15 it was more than 73.5 µM; with SK-MEL-5 it was > 100 µM (inactive). Besides, the GI50 was > 100 µM (inactive) in the test with SK-MEL-28; > 100 µM (inactive) with UACC-257; > 100 µM (inactive) in the test with MCF7; > 100 µM (inactive) in the test on U-251; 75 µM (inactive) with A549; > 100 µM (inactive) with K562.

On to `CC(=O)OCCOCn1cc(C=O)c2ccccc21`, for which the GI50 in the test with UO-31, with HOP-62, in the test with SW-620, in the test on SN12C, in the test on MOLT-4 and in the test with NCI/ADR-RES was > 100 µM (inactive) in each case. Further, the GI50 is > 100 µM (inactive) in the test with SF-539; > 100 µM (inactive) in the test with COLO 205; > 100 µM (inactive) in the test with SNB-75; > 100 µM (inactive) in the test on SK-MEL-2; more than 100 µM in the test with HCT-15; 75 µM (inactive) in the test with SK-MEL-5. Moreover, the GI50 with SK-MEL-28, in the test on TK-10, in the test on UACC-257, with MCF7, in the test on ACHN and in the test on U-251 was > 100 µM (inactive) in each case. The GI50 in the test on A549 and in the test on K562 was > 100 µM (inactive) throughout.

Take `CC(=O)/N=C1\N/C(=C/c2cc([N+](=O)[O-])ccc2O)CN1C`: the GI50 is > 100 µM (inactive) with UO-31; > 100 µM (inactive) in the test on HOP-62; > 100 µM (inactive) in the test on SW-620; > 100 µM (inactive) in the test on SN12C; 6.31 µM (inactive) in the test on MOLT-4; > 100 µM (inactive) in the test on NCI/ADR-RES. Moreover, the GI50 in the test on SF-539 was > 100 µM (inactive); in the test on COLO 205, > 100 µM (inactive); in the test on SNB-75, > 100 µM (inactive); in the test with SK-MEL-2, > 100 µM (inactive); in the test on HCT-15, more than 100 µM; in the test with SK-MEL-5 it was > 100 µM (inactive). Further, the GI50 in the test with SK-MEL-28, in the test on TK-10, in the test with UACC-257, with MCF7, in the test with ACHN and in the test on U-251 was > 100 µM (inactive) throughout. Also, in the test on A549, the GI50 is > 100 µM (inactive).

Regarding `N/C(=N\O)N/N=C/c1ncccc1O`, the GI50 was 13.3 µM (inactive) in the test with UO-31; 19.8 µM (inactive) in the test on HOP-62; 22 µM (inactive) in the test on SW-620; 16.7 µM (inactive) in the test with SN12C; 11.2 µM (inactive) with MOLT-4; 8.73 µM (inactive) in the test on NCI/ADR-RES. The GI50 with SF-539 was 19.7 µM (inactive); in the test on COLO 205, 11.9 µM (inactive); in the test on SNB-75, 17.9 µM (inactive); in the test on SK-MEL-2, 31.3 µM (inactive); in the test on HCT-15, 4.66 µM; with SK-MEL-5, 11.4 µM (inactive). Besides, the GI50 in the test with SK-MEL-28 was 45.9 µM (inactive); with UACC-257 it was 26.1 µM (inactive); with MCF7, 2.07 µM (inactive); in the test on U-251, 15.5 µM (inactive); in the test on A549, 10.1 µM (inactive); with K562, 4.82 µM (inactive).

As for `CCOC(=O)CCc1c(C)c2c(O)cc(O)cc2oc1=O`, the GI50 in the test with UO-31 is > 87.1 µM (inactive); in the test with HOP-62, > 100 µM (inactive); in the test on SW-620, > 100 µM (inactive); with SN12C, > 100 µM (inactive); in the test with MOLT-4, > 54.6 µM (inactive); with NCI/ADR-RES, > 100 µM (inactive). Also, the GI50 is > 100 µM (inactive) in the test on SF-539; > 100 µM (inactive) with COLO 205; > 100 µM (inactive) with SNB-75; > 76.4 µM (inactive) in the test on SK-MEL-2; 99.1 µM with HCT-15; > 100 µM (inactive) with SK-MEL-5. For the same compound, the GI50 was > 100 µM (inactive) in the test on SK-MEL-28; > 100 µM (inactive) with UACC-257; > 100 µM (inactive) in the test with MCF7; 53.8 µM (inactive) in the test with U-251; > 100 µM (inactive) with A549; > 100 µM (inactive) with K562.

As to `O=C1OC(CN2CCOCC2)CN1/N=C/c1ccc([N+](=O)[O-])o1` (configuration not stated) [FURALTADONE], the GI50 with UO-31 was 97.1 µM (inactive); with HOP-62, 61.9 µM (inactive); with SW-620, 50.7 µM (inactive); with SN12C, 28.7 µM (inactive); with MOLT-4, 51.6 µM (inactive); in the test on NCI/ADR-RES, 35.4 µM (inactive). In addition, the GI50 is 42.1 µM (inactive) in the test with SF-539; 27.5 µM (inactive) in the test with COLO 205; > 100 µM (inactive) with SNB-75; 69.3 µM (inactive) with SK-MEL-2; 17 µM with HCT-15; 23.6 µM (inactive) with SK-MEL-5. For the same compound, the GI50 is > 100 µM (inactive) with SK-MEL-28; > 100 µM (inactive) in the test with TK-10; 35.7 µM (inactive) in the test with UACC-257; 46 µM (inactive) in the test with MCF7; 35.6 µM (inactive) with ACHN; 31.6 µM (inactive) with U-251. For the same compound, the results for the GI50 in the test with A549 and with K562 were 50.9 µM (inactive) and 70 µM (inactive), respectively.

With `CCCCC(CC)C(=O)Oc1ccc(C(=O)c2ccccc2)c(O)c1` (configuration not stated), the GI50 with UO-31 was 20.9 µM (inactive); with HOP-62, 55 µM (inactive); in the test on SW-620, 56.4 µM (inactive); in the test on SN12C it was 44.4 µM (inactive); in the test on MOLT-4, 24.9 µM (inactive); in the test with NCI/ADR-RES, 35.9 µM (inactive). Also, the GI50 is 5.46 µM (inactive) in the test with SF-539; 61.2 µM (inactive) with COLO 205; 23.3 µM (inactive) in the test on SNB-75; 56.4 µM (inactive) in the test on SK-MEL-2; 40.1 µM in the test on HCT-15; 39.6 µM (inactive) in the test with SK-MEL-5. Moreover, the GI50 in the test on SK-MEL-28 is 36.8 µM (inactive); in the test with TK-10, 58.7 µM (inactive); in the test on UACC-257, 38.5 µM (inactive); in the test with MCF7 it was 60.4 µM (inactive); in the test on ACHN, 48.1 µM (inactive); in the test on U-251 it was 46.7 µM (inactive). Also, the GI50 is 46.8 µM (inactive) in the test on A549 and 25.9 µM (inactive) in the test on K562.

Regarding `COc1cc(OC)cc(Oc2nc3cc(F)c(F)cc3nc2-c2ccccc2)c1`, the GI50 with UO-31, in the test with HOP-62, in the test with SW-620, in the test with SN12C, with MOLT-4 and with NCI/ADR-RES was > 100 µM (inactive) throughout. The GI50 in the test with SF-539 was > 100 µM (inactive); with COLO 205 it was > 100 µM (inactive); in the test on SNB-75, > 100 µM (inactive); in the test with SK-MEL-2 it was > 100 µM (inactive); in the test with HCT-15, more than 100 µM; with SK-MEL-5, > 100 µM (inactive). The GI50 in the test on SK-MEL-28, in the test on TK-10, in the test on UACC-257, with MCF7, with ACHN and in the test on U-251 was > 100 µM (inactive) each time. In addition, in the test on A549, the GI50 was > 100 µM (inactive).
